Values belong to the compound of their own block, whether it stands above or below them.
What was measured:
[1] = Binding affinity to IMP1 (unknown origin) expressed in Escherichia coli BL21 (DE3) assessed as inhibition constant using IPM as substrate incubated for 5 mins; set-up: species or system Homo sapiens
[2] = Binding affinity to VIM2 (unknown origin) expressed in Escherichia coli BL21 (DE3) assessed as inhibition constant using IPM as substrate incubated for 5 mins; set-up: species or system Homo sapiens
[3] = Inhibition of VIM2 (unknown origin) by spectroscopic analysis; set-up: species or system Homo sapiens
[4] = Inhibition of IMP1 (unknown origin) by spectroscopic analysis; set-up: species or system Homo sapiens
[5] = Inhibition of L1 (unknown origin) by spectroscopic analysis; set-up: species or system Homo sapiens
[6] = biological target: T1, Metallo-beta-lactamase type 2 (Bacteria, UniProt C7C422); test: Inhibition of NDM1 (unknown origin) by spectroscopic analysis
T1 sequence (C7C422 whole entry): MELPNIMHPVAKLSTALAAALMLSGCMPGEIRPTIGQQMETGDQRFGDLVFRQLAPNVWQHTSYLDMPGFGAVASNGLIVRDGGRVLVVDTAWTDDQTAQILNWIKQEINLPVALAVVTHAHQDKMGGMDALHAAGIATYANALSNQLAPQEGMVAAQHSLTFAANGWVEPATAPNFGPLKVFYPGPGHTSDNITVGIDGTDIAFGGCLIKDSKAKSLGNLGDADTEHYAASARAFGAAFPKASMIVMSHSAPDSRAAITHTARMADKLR

[7] = biological target: T1, Metallo-beta-lactamase type 2; test: Inhibition of NDM1 (unknown origin) using cefazolin as substrate
[8] = Inhibition of L1 (unknown origin) using cefazolin as substrate; set-up: species or system Homo sapiens
[9] = Inhibition of Imis (unknown origin) using cefazolin as substrate; set-up: species or system Homo sapiens
[10] = Inhibition of IMP1 (unknown origin) using cefazolin as substrate; set-up: species or system Homo sapiens
[11] = Inhibition of Aeromonas hydrophila NDM1 preincubated for 30 mins followed by nitrocefin solution measured by UV based microtitre plate analysis
[12] = Inhibition of Aeromonas hydrophila VIM2 preincubated for 30 mins followed by nitrocefin solution measured by UV based microtitre plate analysis
[13] = Inhibition of Aeromonas hydrophila VIM4 preincubated for 30 mins followed by nitrocefin solution measured by UV based microtitre plate analysis
[14] = biological target: Beta-lactamase OXA-1 (Escherichia coli, UniProt P13661); test: Inhibition of Escherichia coli beta-lactamase OXA-1
Beta-lactamase OXA-1, sequence (P13661 whole entry): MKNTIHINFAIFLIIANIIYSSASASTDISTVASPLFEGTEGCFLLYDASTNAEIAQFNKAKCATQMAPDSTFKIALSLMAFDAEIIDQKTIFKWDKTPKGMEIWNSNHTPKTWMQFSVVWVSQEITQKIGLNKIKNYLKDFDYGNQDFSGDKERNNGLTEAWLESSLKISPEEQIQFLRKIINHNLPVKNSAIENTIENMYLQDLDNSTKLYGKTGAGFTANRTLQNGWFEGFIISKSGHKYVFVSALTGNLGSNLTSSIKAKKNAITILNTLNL

[15] = biological target: Beta-lactamase TEM-1 (Escherichia coli, UniProt Q4GY26); test: Inhibition of Escherichia coli beta-lactamase TEM-1
Beta-lactamase TEM-1, sequence (Q4GY26 whole entry): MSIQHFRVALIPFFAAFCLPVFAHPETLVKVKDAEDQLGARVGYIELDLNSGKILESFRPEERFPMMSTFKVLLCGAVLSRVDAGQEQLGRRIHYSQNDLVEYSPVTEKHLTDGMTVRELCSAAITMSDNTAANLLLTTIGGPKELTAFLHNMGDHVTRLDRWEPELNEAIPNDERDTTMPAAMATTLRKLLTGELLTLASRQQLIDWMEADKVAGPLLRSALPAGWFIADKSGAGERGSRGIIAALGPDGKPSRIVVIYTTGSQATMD

[16] = Inhibition of Pseudomonas aeruginosa beta-lactamase OXA-2
[17] = biological target: Beta-lactamase (Enterobacter cloacae, UniProt P05364); test: Inhibition of Enterobacter cloacae AmpC
Beta-lactamase, sequence (P05364 whole entry): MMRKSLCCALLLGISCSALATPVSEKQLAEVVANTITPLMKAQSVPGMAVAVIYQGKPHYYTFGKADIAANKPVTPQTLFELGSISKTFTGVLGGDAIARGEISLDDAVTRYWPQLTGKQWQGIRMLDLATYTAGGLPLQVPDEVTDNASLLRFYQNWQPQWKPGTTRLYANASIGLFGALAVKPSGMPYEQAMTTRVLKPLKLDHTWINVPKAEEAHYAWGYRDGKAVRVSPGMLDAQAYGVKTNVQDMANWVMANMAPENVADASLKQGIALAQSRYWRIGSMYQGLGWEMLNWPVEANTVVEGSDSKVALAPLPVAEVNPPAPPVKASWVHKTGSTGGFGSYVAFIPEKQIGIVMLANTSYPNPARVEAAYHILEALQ

[18] = Inhibition of Escherichia coli beta-lactamase CTX-M-44
[19] = Inhibition of Escherichia coli beta-lactamase CTX-M-15
[20] = biological target: Beta-lactamase CTX-M-14 (Escherichia coli, UniProt Q9L5C7); test: Inhibition of Escherichia coli beta-lactamase CTX-M-14
Beta-lactamase CTX-M-14, sequence (Q9L5C7 whole entry): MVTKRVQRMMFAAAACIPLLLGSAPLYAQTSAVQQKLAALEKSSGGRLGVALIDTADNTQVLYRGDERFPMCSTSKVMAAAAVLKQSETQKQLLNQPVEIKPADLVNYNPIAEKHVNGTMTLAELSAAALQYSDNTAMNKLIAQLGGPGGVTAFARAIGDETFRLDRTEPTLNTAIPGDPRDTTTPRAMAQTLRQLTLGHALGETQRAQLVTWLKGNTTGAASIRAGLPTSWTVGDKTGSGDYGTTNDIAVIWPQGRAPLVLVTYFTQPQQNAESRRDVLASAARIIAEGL

[21] = Inhibition of Escherichia coli beta-lactamase CMY-2
[22] = Binding affinity to CTX-M-14 (unknown origin) expressed in Escherichia coli BL21 (DE3) assessed as inhibition constant using nitrocefin as substrate by monochromator based microplate reader analysis; set-up: species or system Homo sapiens
[23] = biological target: T1, Metallo-beta-lactamase type 2; test: Binding affinity to N-terminal 6xHis tagged NDM-1 (42-270 residues) (unknown origin) expressed in Escherichia coli BL21 (DE3) assessed as inhibition constant using nitrocefin as substrate by monochromator based microplate reader analysis
[24] = Binding affinity to KPC-2 (unknown origin) expressed in Escherichia coli BL21 (DE3) assessed as inhibition constant using nitrocefin as substrate by monochromator based microplate reader analysis; set-up: species or system Homo sapiens
[25] = Inhibition of VIM2 (unknown origin); set-up: species or system Bacteria
[26] = Inhibition of VIM5 (unknown origin); set-up: species or system Homo sapiens
[27] = biological target: T2, Beta-lactamase VIM-1 (Bacteria, UniProt Q8GDC1); test: Inhibition of VIM1 (unknown origin); conditions: read-out: IC50
[28] = Inhibition of SPM1 (unknown origin); set-up: species or system Homo sapiens
[29] = Inhibition of L1 (unknown origin); set-up: species or system Homo sapiens
[30] = biological target: T1, Metallo-beta-lactamase type 2; test: Inhibition of NDM1 (unknown origin); conditions: read-out: IC50
[31] = Inhibition of CphA (unknown origin); set-up: species or system Homo sapiens
[32] = Binding affinity to NDM1 (unknown origin) assessed as inhibition constant; set-up: species or system Bacteria; conditions: read-out: Ki
[33] = Binding affinity to Sfh1 (unknown origin) assessed as inhibition constant; set-up: species or system Homo sapiens
[34] = Binding affinity to VIM2 (unknown origin) assessed as inhibition constant; set-up: species or system Bacteria
[35] = Binding affinity to IMP1 (unknown origin) assessed as inhibition constant; set-up: species or system Bacteria; conditions: read-out: Ki
[36] = Binding affinity to L1 (unknown origin) assessed as inhibition constant; set-up: species or system Homo sapiens
[37] = Inhibition of Aeromonas hydrophila IMP1 preincubated for 30 mins followed by nitrocefin solution measured by UV based microtitre plate analysis
[38] = biological target: Carbapenem-hydrolyzing beta-lactamase KPC (Klebsiella pneumoniae, UniProt Q9F663); test: Inhibition of Klebsiella pneumoniae beta-lactamase KPC-2
Carbapenem-hydrolyzing beta-lactamase KPC, sequence (Q9F663 whole entry): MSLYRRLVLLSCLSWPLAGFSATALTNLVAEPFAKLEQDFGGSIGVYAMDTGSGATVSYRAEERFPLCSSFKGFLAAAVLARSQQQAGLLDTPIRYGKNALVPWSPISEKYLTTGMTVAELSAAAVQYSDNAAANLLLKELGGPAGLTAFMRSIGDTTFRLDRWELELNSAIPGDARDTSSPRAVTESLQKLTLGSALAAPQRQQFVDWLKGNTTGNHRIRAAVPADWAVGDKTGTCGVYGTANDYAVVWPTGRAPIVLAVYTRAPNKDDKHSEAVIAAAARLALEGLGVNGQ

[39] = Inhibition of Escherichia coli beta-lactamase TEM-10
[40] = biological target: Beta-lactamase OXA-23 (Acinetobacter baumannii, UniProt Q9L4P2); test: Inhibition of Acinetobacter baumannii beta-lactamase OXA-23
Beta-lactamase OXA-23, sequence (Q9L4P2 whole entry): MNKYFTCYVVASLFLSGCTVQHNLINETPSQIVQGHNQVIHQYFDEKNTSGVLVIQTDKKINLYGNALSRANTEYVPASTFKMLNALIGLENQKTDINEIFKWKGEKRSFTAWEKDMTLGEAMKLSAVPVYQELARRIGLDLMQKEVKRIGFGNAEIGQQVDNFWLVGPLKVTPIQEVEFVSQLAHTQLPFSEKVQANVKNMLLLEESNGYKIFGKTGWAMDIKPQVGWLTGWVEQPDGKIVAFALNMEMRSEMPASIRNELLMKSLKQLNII

[41] = biological target: T2, Beta-lactamase VIM-1; test: Inhibition of VIM1 (unknown origin) using dicefalotinodifluorofluorescein as substrate incubated for 30 mins
[42] = Binding affinity to SHV-1 (unknown origin) assessed as inhibition constant; set-up: species or system Homo sapiens
[43] = Binding affinity to Acinetobacter derived cephalosporinase 7 assessed as inhibition constant
[44] = Binding affinity to KPC2 (unknown origin) assessed as inhibition constant; set-up: species or system Homo sapiens
[45] = Inhibition of IMP1 (unknown origin); set-up: species or system Bacteria

SMILES: CCc1c(C(=O)O)c(S(N)(=O)=O)c(CC)n1C
Ki [1]: 0.26 µM
Ki [2]: 0.02 µM

SMILES: O=C(O)c1cccc(C(O)P(=O)(O)O)n1 (configuration not stated)
IC50 [3]: 1.9 µM
IC50 [4]: 7.2 µM
IC50 [5]: 2.05 µM
IC50 [6]: 0.322 µM

SMILES: NC(=O)[C@@H]1CC[C@@H]2CN1C(=O)N2OS(=O)(=O)O [AVIBACTAM]
IC50 [14]: 0.13 µM
IC50 [15]: 0.007 µM
IC50 [16]: 0.485 µM
IC50 [17]: 0.923 µM
IC50 [18]: 0.004 µM
IC50 [19]: 0.001 µM
IC50 [20]: 0.003 µM
IC50 [21]: 0.044 µM

SMILES: C[C@H](CS)C(=O)N[C@@H](Cc1c[nH]c2ccccc12)C(=O)O
IC50 [25]: 1.06 µM
IC50 [26]: 2.19 µM
IC50 [27]: 33.7 µM
IC50 [28]: 0.26 µM
IC50 [29]: 97.3 µM
IC50 [30]: 64.8 µM
IC50 [31]: > 400 µM

SMILES: COC(=O)[C@]1(CS)N[C@H](C(=O)O)CS1
Ki [33]: 0.16 µM
Ki [34]: 0.38 µM
Ki [32]: 5.2 µM
Ki [35]: 1 µM
Ki [36]: 10 µM

SMILES: C[C@H](CS)C(=O)N1CCC[C@@H]1C(=O)O [D-CAPTOPRIL]
IC50 [31]: 72 µM

SMILES: O=c1c2ccccc2[se]n1-c1ccccc1 [EBSELEN]
Ki [32]: 0.38 µM

SMILES: O=C1C(SCCCS)CCN1c1ccccc1 (configuration not stated)
IC50 [41]: 0.02 µM

SMILES: COC(=O)[C@]1(CS)N[C@H](C(=O)O)C(C)(C)S1
Ki [33]: 1.3 µM
Ki [34]: 0.75 µM
Ki [32]: 0.44 µM
Ki [35]: 0.46 µM
Ki [36]: 20 µM

SMILES: O=C(Cc1cccs1)N[C@@H](Cn1cc(C(=O)O)nn1)B(O)O
Ki [42]: 0.13 µM
Ki [43]: 0.045 µM
Ki [44]: 0.8 µM

SMILES: O=C(O)c1cccc(CP(=O)(O)O)n1
IC50 [3]: 1.29 µM
IC50 [4]: 3.88 µM
IC50 [5]: 1.48 µM

SMILES: N[C@H](CN[C@H](CN[C@@H](CC(=O)O)C(=O)O)C(=O)O)C(=O)O
IC50 [25]: 10.8 µM
IC50 [30]: 9.9 µM

SMILES: C[C@H](CS)C(=O)N[C@H](Cc1c[nH]c2ccccc12)C(=O)O
IC50 [25]: 0.055 µM
IC50 [26]: 0.175 µM
IC50 [27]: 0.526 µM
IC50 [28]: 0.89 µM
IC50 [29]: 16.2 µM
IC50 [30]: 24.8 µM
IC50 [31]: ~400 µM

Now from value to compound, other results behind:

IC50 [7]: 2.93 µM
IC50 [8]: 6.68 µM
IC50 [9]: 4.86 µM
IC50 [10]: 0.28 µM
SMILES: O=C(O)C1=C(CSc2nnc(-c3ccc(-n4[se]c5ccccc5c4=O)cc3)[nH]2)CSC2[C@@H](NC(=O)c3ccccc3)C(=O)N12 (some centres not stated)

IC50 [11]: 34 µM
IC50 [12]: 14 µM
IC50 [13]: 19 µM
SMILES: Nn1c(-c2cc3ccccc3[nH]2)n[nH]c1=S

Ki [23]: 62 µM
SMILES: O=C(Nc1nnn[nH]1)c1cc(-c2ccccc2)nn1-c1ccccc1
Ki [22]: 637 µM
Ki [24]: 44 µM

Ki [32]: 0.04 µM
SMILES: N=C(N)NNC(=O)Nc1c(F)cc(S(=O)(=O)Nc2scnc2C(=O)O)cc1F

IC50 [14]: 3.05 µM
IC50 [15]: 0.026 µM
IC50 [37]: 1.4 µM
IC50 [16]: 1.07 µM
IC50 [17]: 0.845 µM
IC50 [18]: 0.022 µM
IC50 [38]: 0.869 µM
IC50 [19]: 0.013 µM
IC50 [20]: 0.01 µM
IC50 [39]: 0.096 µM
IC50 [21]: 0.015 µM
IC50 [40]: 46.4 µM
SMILES: NCCONC(=O)[C@@H]1CC[C@@H]2CN1C(=O)N2OS(=O)(=O)O [NACUBACTAM]

Ki [23]: 56 µM
SMILES: O=C(Nc1nnn[nH]1)c1cc(-c2ccccc2)n(-c2ccccc2)n1
Ki [22]: 1850 µM
Ki [24]: 239 µM

IC50 [27]: 0.000125 µM
IC50 [45]: 0.00016 µM
SMILES: Nc1nc2c(-c3ccc(S(=O)(=O)NC[C@H]4CCNC4)c(S(N)(=O)=O)c3-c3nnn[nH]3)cccc2s1
